From PubChem BioAssay AID2305 (GlaxoSmithKline (GSK), 2010)

system: P. falciparum 3D7 growth, pLDH absorbance; assay: blood-stage malaria parasite growth potency – strain 3D7, dose response (AID 2305)

Row | SMILES | IC50
1 | CNC(=O)NC1CCN(Cc2c(-c3cccs3)nc3ccccc3c2C(=O)N[C@@H](C)C2CCCCC2)CC1 | 220 nM
2 | Cc1c(CCc2cccc(F)c2F)[nH]c2ccccc2c1=O | 820 nM
3 | CC[C@H](N=C(Nc1ccc(-c2ccccc2)cc1)Nc1ccc(C#N)cc1O)c1ccccc1 | 760 nM
4 | N#Cc1cccc(Nc2nccc(NCC(O)c3cccc(C(F)(F)F)c3)n2)c1 (stereo not drawn) | 550 nM
5 | c1ccc(-c2ccc(-c3nc4ccccc4[nH]3)cc2)cc1 | 810 nM
6 | Cc1c(C(=O)NC2CCC(CN3CCC(c4c[nH]c5ccccc45)CC3)CC2)cnn1-c1c(Cl)cc(Cl)cc1Cl (stereo not drawn) | 710 nM
7 | CCn1c(-c2ccccc2)cc2nnc3ccccc3c21 | 770 nM
8 | CCc1c(CCNCCCCCCNCCc2ccc3c(c2C)OCO3)ccc2c1OCO2 | 610 nM
9 | CCN(CC)CCCC(C)Nc1ccnc2ccc(OC)cc12 (stereo not drawn) | 820 nM
10 | CN1CCN(CCCN(Cc2ccc(-c3cccc(CNC4CCCC4)c3)cc2)C(=O)Nc2ccccc2)CC1 | 1120 nM
11 | Cc1ccc(NC(=O)c2cccc(CN3CCCN(CC4CCCCC4)CC3)c2)cc1F | 600 nM
12 | Cc1ccc(C2(C)CC(C)(C)N(C(=O)COc3ccc4ccccc4c3)c3ccccc32)cc1 (stereo not drawn) | 110 nM
13 | CCC(C)CN1CCN(c2ccc(NC(=O)c3cccs3)cc2)CC1C (stereo not drawn) | 660 nM
14 | O=C(CCc1cnc[nH]1)Nc1cccc(-c2ccc(-c3nc4ccc(F)cc4[nH]3)s2)c1 | 560 nM
15 | CC(C)(C)c1cc(C(=O)N2CCN(c3ccc(C(F)(F)F)cn3)CC2)n(Cc2ccc(F)cc2)n1 | 980 nM
16 | O=S(=O)(c1ccc2ccccc2c1)N1CCCN(Cc2ccc(OCCCN3CCCCC3)cc2)CC1 | 1100 nM
17 | CCNC(=O)c1ccc2c(c1)c(C)c(C)n2Cc1ccc(F)cc1 | 770 nM
18 | Oc1ccc2c(c1NCC1CCCCC1)CCCC2 | 510 nM
19 | CCn1c(-c2nonc2N)nc2c(-c3cccc(NC(=O)Nc4ccccc4Cl)c3)ncc(OCCCN)c21 | 670 nM
20 | CC(C)(CNCc1ccc(F)c(F)c1)c1nc(-c2ccc(Cl)c(O)c2)c(-c2ccncc2)[nH]1 | 660 nM
21 | COc1ccc(CNCC2CCC(CNCCc3ccccc3)CC2)cc1Cl (stereo not drawn) | 790 nM
22 | Cc1cc(C)c(O)c(-c2cc(C(=O)Nc3ccc(S(=O)(=O)N4CC(C)OC(C)C4)cc3)[nH]n2)c1 (stereo not drawn) | 660 nM
23 | O=C(NC1CCCCN(Cc2ccccc2O)C1)c1cc(F)cc(F)c1 (stereo not drawn) | 1170 nM
24 | CN1CCC(NCc2cccc(-c3ccc(S(=O)(=O)NCCN4CCCC4)c(F)c3)c2)CC1 | 1010 nM
25 | COc1ccc(C2c3ccccc3-c3nc(N)nc(N)c3C2C)cc1 (stereo not drawn) | 240 nM

Row | SMILES | IC50
26 | CS(=O)(=O)CCNCc1cccc(-c2ccc3c(Nc4ccc(Oc5ccccc5)cc4)ccnc3c2)c1 | 690 nM
27 | Cc1cc(NCCC(=O)NCCOc2ccccc2)nc(NCCc2ccccc2)n1 | 1230 nM
28 | Nc1c2c(nc3ccc(NC(=O)CCCCCCc4ccccc4)cc13)CCCC2 | 250 nM
29 | Cc1cccn2c(=O)c3cc(C(=O)NCCc4ccccc4)c(=N)n(CCCOC(C)C)c3nc12 | 480 nM
30 | COc1ccc(-c2cnc(N)c(-c3nc4ccc(Br)cc4[nH]3)c2)cc1 | 1560 nM
31 | O=C(/C=C/c1ccc(Cl)c(Cl)c1)NCCCCCN1CCC(NC(=O)Nc2cccc(Cl)c2F)CC1 | 380 nM
32 | C=C[C@H]1CN(CCCCCCC)CC[C@H]1CC(O)Cc1ccnc2cc(O)c(OC)cc12 (stereo partly drawn) | 820 nM
33 | Cc1ccc(CNc2ccc3ncc(-c4cccc(C(=O)NCCN(C)C)c4)n3n2)c(C)c1 | 590 nM
34 | O=C(Nc1cccc(-c2cccc(F)c2)c1)C1CCN(Cc2ccc(O)cc2)CC1 | 1730 nM
35 | COC(=O)c1ccc(N2CCN(CCCCNC(=O)c3ccc(NC(=O)c4ccc(Cl)cc4)cc3)CC2)c(OC)c1 | 1300 nM
36 | CCN1CCN(c2cc(C)c3cc(NC(=O)c4ccc(OC)c(OC)c4)ccc3n2)CC1 | 1030 nM
37 | Cc1cccc2[nH]c(-c3cccc(-c4ccc(CN5CCN(CCO)CC5)cc4)c3)nc12 | 820 nM
38 | O=C1OC2(CCN(C(=O)c3ccc(-n4cnnn4)cc3)CC2)CN1Cc1ccc(Cl)c(Cl)c1 | 720 nM
39 | CCN(CC)CCNc1ccnc2[nH]c3ccc(C)cc3c12 | 670 nM
40 | O=C(Nc1cccc(C(F)(F)F)c1)c1ccc(S(=O)(=O)NC2CCN(CC3CCCCC3)C2)cc1 (stereo not drawn) | 790 nM
41 | CC1=C(C(=O)Nc2cc3cn[nH]c3cc2F)C(c2cccc(NS(C)(=O)=O)c2)CC(=O)N1 (stereo not drawn) | 430 nM
42 | COC(=O)c1c(C#N)c(OC)cc(O)c1CSC[C@@H](CN1CCCCC1)Nc1nc(-c2ccc([N+](=O)[O-])cc2)cs1 | 1270 nM
43 | CN1CCN(CCCCCNc2c3ccccc3nc3ccccc23)CC1 | 740 nM
44 | O=C(Nc1ccc(Cl)c(Cl)c1)Nc1cc(C(F)(F)F)ccc1Cl | 1440 nM
45 | Cc1[nH]c(C)c(-c2ccc(-c3ccc4c(c3)OCO4)nc2)c(=O)c1Br | 190 nM
46 | OC1(c2ccccc2)c2cc(Cl)ccc2OC1c1nc2c(Cl)ccc(Cl)c2o1 (stereo not drawn) | 300 nM
47 | c1ccc(CN2CCC(NCc3ccccc3-c3cccc(CNC4CCCC4)c3)CC2)cc1 | 720 nM
48 | NCC1(c2nc(-c3ccc(Cl)c(O)c3)c(-c3ccncc3)[nH]2)CCCCC1 | 740 nM
49 | FC(F)(F)COc1ccc2ccccc2c1CNCCCCCCNCc1c(OCC(F)(F)F)ccc2ccccc12 | 350 nM
50 | CC(C)N1CCC(N(Cc2ccc(-c3ccc(Cl)cc3)cc2)C(=O)Cn2c(CCc3cccc(F)c3F)cc(=O)c3ccccc32)CC1 | 930 nM

Row | SMILES | IC50
51 | COc1ccccc1NC(=O)c1cc(C(=O)c2cc(Cl)ccc2O)cn(-c2ccccc2OC)c1=O | 940 nM
52 | O=c1c2sc(-c3ccc(Cl)cc3)cc2ncn1Cc1ccc(OCCN2CCCC2)c2ccccc12 | 250 nM
53 | COc1ccc(CCNCCCCCCNCCc2ccc(Cl)cc2)c(Cl)c1OC | 830 nM
54 | CC(=O)Nc1ccc(S(=O)(=O)N(Cc2cccc(Oc3ccccc3)c2)C2CCN(C/C=C(\C)CCC=C(C)C)CC2)cc1 | 190 nM
55 | Nc1c2c(nc3ccc(NC(=O)CCCCCc4ccccc4)cc13)CCCC2 | 440 nM
56 | COc1cccc(C(=O)C2CC2CN2CC=C(c3c[nH]c4ccc(OC)nc34)CC2)c1 (stereo not drawn) | 530 nM
57 | CCc1nc2c(N)nc(N)nc2nc1-c1ccc(OC)cc1 | 1200 nM
58 | O=C(Nc1ccc(OC2CCN(Cc3ccco3)CC2)c(Cl)c1)c1ccc2ncccc2c1 | 950 nM
59 | CC(CNC1CCN(CCn2c(=O)ccc3ccc(F)cc32)CC1)c1ccccc1 (stereo not drawn) | 1270 nM
60 | O=C(/C=C/c1ccc(Cl)c(Cl)c1)NCCCCCN1CCN(C(=O)Nc2cccc(F)c2)CC1 | 870 nM
61 | COc1cccc(NC(=O)Nc2ccc(Nc3nc(C)cc(N(C)C)n3)cc2)c1 | 170 nM
62 | CN1CCC(N2CCN(Cc3cccc(-c4ccc(-c5nc6ccc(C(F)(F)F)cc6[nH]5)cc4)c3)CC2)CC1 | 140 nM
63 | CN(C)c1ccc(-c2ccc(C(=O)NC3CCN(Cc4ccc(F)cc4)CC3)s2)cc1 | 1050 nM
64 | CC(=NN=C(N)N)c1ccc2c(c1)Cc1ccccc1-2 | 1410 nM
65 | Brc1ccc(Nc2ccnc3cc(-c4nccs4)ccc23)cc1Oc1ccnc2cc(-c3nccs3)ccc12 | 1060 nM
66 | C[C@@H](NC(=O)NC(CCN1CCC2(CC1)CN(S(C)(=O)=O)c1ccccc12)c1ccc(Cl)c(Cl)c1)c1ccccc1 (stereo partly drawn) | 900 nM
67 | O=C(/C=C/c1ccc(Cl)c(Cl)c1)NCCCCCN1CCCN(C(=O)Nc2cccc(C(F)(F)F)c2)CC1 | 870 nM
68 | CCn1c(C)c(C)c2cc(C(=O)Nc3ccon3)ccc21 | 730 nM
69 | CCCCCCNC(=O)C1Cc2c([nH]c3ccccc23)C2(CCN(CCc3ccccc3)CC2)N1 (stereo not drawn) | 1140 nM
70 | O=C(NCCCCN1CCC(c2ccc(C(F)(F)F)cc2C(F)(F)F)CC1)c1ccc(NC(=O)c2ccc(Cl)cc2)cc1 | 610 nM
71 | CN(c1ccc(C(=O)N[C@@H](CCC(=O)O)C(=O)O)cc1)S(=O)(=O)c1ccc2nc(N)[nH]c(=O)c2c1 | 150 nM
72 | CN(CCCNc1ccc(C(=O)Nc2ccc(C(F)(F)F)cc2)cc1[N+](=O)[O-])Cc1ccccc1 | 230 nM
73 | COc1ccc(CNC2Cc3ccccc3C2)cc1-c1ccc(S(=O)(=O)NCCN2CCCC2)c(F)c1 | 720 nM
74 | CN(C)CCOc1cc(NC(=O)Nc2ccc3c(c2)CCCC3=O)ccc1I | 940 nM
75 | O=C(NCCN1CCCCC1)c1ccc(CNC(=O)c2ccc(O)c(-c3cccc(C(F)(F)F)c3)c2)cc1 | 890 nM

Row | SMILES | IC50
76 | O=C(Nc1ccc(Cl)c(Cl)c1)N1CCC(NCc2cccc([N+](=O)[O-])c2)CC1 | 760 nM
77 | c1ccc(-c2ccc3c(Nc4ccc5[nH]ccc5c4)ccnc3c2)nc1 | 940 nM
78 | Brc1cc(CNCCCNc2nc3ccccc3[nH]2)sc1Br | 220 nM
79 | O=S(=O)(NCCN1CCCC1)c1cccc(-c2ccc(CNCc3ccc(F)cc3)cc2)c1 | 230 nM
80 | NCCNc1ccc([N+](=O)[O-])cc1C(=O)Nc1cccc(C(F)(F)F)c1 | 910 nM
81 | O=C(NC1CC1)c1ccc(N2CCC(Cc3ccccc3)CC2)nc1 | 760 nM
82 | Cc1cc(N(C)C2CCN(C)CC2)nc(Nc2ccc(Br)cc2)n1 | 480 nM
83 | Cc1cc(N2CCCCC2)nc2ccc(NC(=O)c3cc(=O)c4ccccc4o3)cc12 | 720 nM
84 | CCCn1c(Sc2ccc(C#N)c([N+](=O)[O-])c2)nnc1-c1ccc(Cl)cc1 | 540 nM
85 | CN(Cc1cccc(F)c1)C1CCN(c2cc(NC(=O)c3ccc(F)cc3)ccn2)C1 (stereo not drawn) | 1230 nM
86 | COC(=O)c1ccc2nc(-c3cc(-c4cccc(-c5ccccc5)c4)cnc3N)[nH]c2c1 | 210 nM
87 | CC(=NNC(=S)NC(c1ccccc1)c1ccccc1)c1ccccn1 | 900 nM
88 | O=C(/C=C/c1ccccc1Cl)NC1CCC(CN2[C@@H]3CC[C@H]2CC(c2c[nH]c4ccccc24)C3)CC1 (stereo partly drawn) | 710 nM
89 | Cc1c(F)cc(C(=O)NC2CC2)cc1-c1ccc2c(cnn2S(=O)(=O)c2cccs2)c1 | 860 nM
90 | O=C(Nc1ccc(Cl)cc1)c1cccc(S(=O)(=O)NC2CCN(CC3CCCCC3)C2)c1 (stereo not drawn) | 910 nM
91 | CSc1ccc(C[C@@H](C)NC[C@H](O)c2cccc(Cl)c2)cc1 | 940 nM
92 | Cc1cccc2[nH]c(-c3ccc(-c4cccc(CN5CCN(c6ccc(C#N)cn6)CC5)c4)s3)nc12 | 1420 nM
93 | CCc1ccc2c(c1O)CCN(C)C2Cc1ccccc1Cl (stereo not drawn) | 250 nM
94 | CN(C)CCOc1cc(NC(=O)c2ccc(-c3ccc(Cl)cc3Cl)cc2)ccc1-c1ccccc1 | 910 nM
95 | O[C@@H](c1cccc2ccccc12)[C@@H]1CN(CCc2ccccc2)CC[C@@]1(O)c1ccccc1 | 140 nM
96 | Cc1cnccc1/C=C/c1cccc(OCCCN2CCc3ccc(S(C)(=O)=O)cc3CC2)c1 | 610 nM
97 | OC(CNCc1ccccc1OCc1ccccc1)c1cc(C(F)(F)F)cc(C(F)(F)F)c1 (stereo not drawn) | 130 nM
98 | Clc1cc(Cl)cc(Nc2ccnc(Nc3cc(Cl)cc(Cl)c3)n2)c1 | 670 nM
